Where a name gives a salt, the structure may show the parent alone.
System: MTT (mouse pheochromocytoma)
Assay: IC50 of cell viability (ATP content)
Settings: (24 or 48 h)
Procedure, shortened: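 Each well of a white 1536-well plate received 5 µl of MTT mouse pheochromocytoma cells at 200,000 cells/ml in DMEM containing 5% FBS and 1% horse serum. After overnight culture at 37°C, 5% CO2, cells were exposed for 24 or 48 hrs to 23 nl of library compound in DMSO, pinned at 8 final concentrations from 0.5 nM to 46 µM. CellTiter-Glo luminescence was read after 15 minutes, and IC50 was obtained from a four-parameter logistic fit of signals normalised to positive-control and DMSO wells.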

SMILES: NC(=O)c1cc([N+](=O)[O-])cc([N+](=O)[O-])c1 [NITROMIDE]
- IC50 of cell viability: > 46 µM

SMILES: Cc1ccc2nc(N)nc(O)c2c1Sc1ccncc1 [NOLATREXED]
- IC50 of cell viability: > 46 µM

SMILES: CN1Cc2c(N)cccc2C(c2ccccc2)C1.O=C(O)/C=C\C(=O)O (centres undefined) [NOMIFENSINE MALEATE]
- IC50 of cell viability: > 46 µM

SMILES: C#C[C@]1(O)CC[C@H]2[C@@H]3CCC4=C/C(=N\O)CC[C@H]4[C@@H]3CC[C@]21CC [NORELGESTROMIN]
- IC50 of cell viability: > 46 µM

SMILES: C[C@]12CCC3C(CCC/4=C/C(=O)CCC34)C1CC[C@@]2(O)C#C (some centres undefined) [NORETHINDRONE]
- IC50 of cell viability: > 46 µM

SMILES: CC(=O)O[C@@]1(CC[C@H]2[C@@H]3CCC/4=C/C(=O)CC[C@@H]4[C@H]3CC[C@]12C)C#C [NORETHISTERONE ACETATE]
- IC50 of cell viability: > 46 µM

SMILES: O=C1NC(=O)C2C3C=CC(C3)C12 (centres undefined) [NOREXIMIDUM]
- IC50 of cell viability: > 46 µM

SMILES: NCC(O)c1cccc(O)c1 (centres undefined) [NORFENEFRINE HYDROCHLORIDE]
- IC50 of cell viability: > 46 µM

SMILES: C#C[C@]1(OC(C)=O)CC[C@H]2[C@@H]3CCC4=C/C(=N/O)CC[C@@H]4[C@H]3CC[C@@]21CC [NORGESTIMATE]
- IC50 of cell viability: > 46 µM

SMILES: O=C1N=C2SCCN2C(=O)C1Cc1ccc(Cl)cc1 (centres undefined) [NUCLOMEDONUM]
- IC50 of cell viability: > 46 µM

SMILES: CC(CCc1ccccc1)NC(C)C(O)c1ccc(O)cc1 (centres undefined) [NYLIDRIN]
- IC50 of cell viability: > 46 µM

SMILES: CC(=O)NC(CCC(N)=O)C(=O)O [Na-Acetyl-L-glutamine]
- IC50 of cell viability: > 46 µM

SMILES: COc1ccc2cc(CCC(C)=O)ccc2c1 [Nabumetone]
- IC50 of cell viability: > 46 µM

SMILES: NC(=O)c1ccc[n+]([C@@H]2O[C@@H](CO[P@@](=O)([O-])O[P@@](=O)(O)OC[C@@H]3O[C@@H](n4cnc5c(N)ncnc54)[C@@H](O)[C@H]3O)[C@H](O)[C@@H]2O)c1 [Nadide]
- IC50 of cell viability: > 46 µM

SMILES: CC1CCc2c(N3CCC(O)CC3)c(F)cc3c(=O)c(C(=O)O)cn1c23 (centres undefined) [Nadifloxacin]
- IC50 of cell viability: > 46 µM

SMILES: CC(C)(C)NC[C@H](O)COc1cccc2c1C[C@@H](O)[C@H](O)C2 [Nadolol]
- IC50 of cell viability: > 46 µM

SMILES: O.[Na+].CCOC1=CC=C2C=CC=CC2=C1C(=O)N[C@H]3[C@@H]4SC(C)(C)[C@@H]([N@@]4C3=O)C([O-])=O [Nafcillin sodium salt monohydrate]
- IC50 of cell viability: > 46 µM

SMILES: CC(C)(Oc1ccc(C2CCCc3ccccc32)cc1)C(=O)O (centres undefined) [Nafenopin]
- IC50 of cell viability: > 46 µM

SMILES: CCN(CC)CCOC(=O)[C@@H](Cc1cccc2ccccc12)C[C@H]1CCCO1 [Nafronyl oxalate]
- IC50 of cell viability: > 46 µM

SMILES: CN(C/C=C\c1ccccc1)Cc1cccc2ccccc12 [Naftifine hydrochloride]
- IC50 of cell viability: > 46 µM

SMILES: CCN1\C=C(\C(O)=O)C(=O)C2=CC=C(C)N=C12 [Nalidixic acid]
- IC50 of cell viability: > 46 µM

SMILES: CCCCCCCCCC(=O)O[C@H]1CC[C@H]2[C@@H]3CCC4=CC(=O)CC[C@@H]4[C@H]3CC[C@]12C [Nandrolone decanoate]
- IC50 of cell viability: > 46 µM

SMILES: c1ccc2ccccc2c1 [Naphthalene]
- IC50 of cell viability: > 46 µM

SMILES: CN[S+](=O)([O-])CCc1ccc2[nH]cc(C3CCN(C)CC3)c2c1 [Naratriptan Hydrochloride]
- IC50 of cell viability: > 46 µM

SMILES: C[C@@H]1O[C@@H](O[C@@H]2\C=C/C=C\C=C/C=C\C[C@H](C)OC(=O)/C=C\[C@H]3O[C@@H]3C[C@H](O)C[C@]3(O)C[C@@H](O)[C@@H](C(=O)O)[C@H](C2)O3)[C@H](O)[C@H](N)[C@@H]1O [Natamycin]
- IC50 of cell viability: > 46 µM

SMILES: CCCc1c2oc(C(=O)O)cc(=O)c2cc2c(=O)cc(C(=O)O)n(CC)c12 [Nedocromil]
- IC50 of cell viability: > 46 µM

SMILES: CCC/1=N/N(CCCN2CCN(CC2)C3=CC(=CC=C3)Cl)C(=O)N1CCOC4=CC=CC=C4 [Nefazodone hydrochloride]
- IC50 of cell viability: > 46 µM

SMILES: C/C=C1/NN(CCCN2CCN(c3cccc(Cl)c3)CC2)C(=O)N1CCOc1ccccc1 [Nefazodone hydrochloride]
- IC50 of cell viability: > 46 µM

SMILES: Cc1cccc(C)c1NC(=O)CN1CCCC1=O [Nefiracetam]
- IC50 of cell viability: > 46 µM

SMILES: CN1CCO[C@H](c2ccccc2)c2ccccc2C1 [Nefopam hydrochloride]
- IC50 of cell viability: > 46 µM

SMILES: Cc1c(O)cccc1C(=O)N[C@@H](CSc1ccccc1)[C@H](O)CN1C[C@H]2CCCC[C@H]2C[C@H]1C(=O)NC(C)(C)C [Nelfinavir Mesylate]
- IC50 of cell viability: > 46 µM

SMILES: CNc1cc(OC)c(C(=O)NC2CCN(Cc3ccccc3)C2C)cc1Cl (centres undefined) [Nemonapride]
- IC50 of cell viability: > 46 µM

SMILES: CCOC(=O)c1cc(-c2ccccc2)nc2ccc(C)cc12 [Neocinchophen]
- IC50 of cell viability: > 46 µM

SMILES: NC[C@@H]1O[C@@H](O[C@H]2[C@@H](O)[C@H](O[C@@H]3[C@@H](O)[C@H](N)C[C@H](N)[C@H]3O[C@H]3O[C@H](CN)[C@@H](O)[C@H](O)[C@H]3N)O[C@@H]2CO)[C@H](N)[C@@H](O)[C@@H]1O [Neomycin Trisulfate Hydrate]
- IC50 of cell viability: > 46 µM

SMILES: NC(=O)Cc1cccc(C(=O)c2ccccc2)c1N [Nepafenac]
- IC50 of cell viability: > 46 µM

SMILES: C1CN\C(N1)=C/C2=CC=CC3=C2C=CC=C3 [Nephazoline]
- IC50 of cell viability: > 46 µM

SMILES: CCN[C@@H]1C[C@H](N)[C@H](O[C@@H]2O\C(=C/C[C@H]2N)CN)[C@@H](O)[C@@H]1O[C@@H]3OC[C@@](C)(O)[C@@H](NC)[C@H]3O [Netilmicin sulfate]
- IC50 of cell viability: > 46 µM

SMILES: Cc1ccnc2c1NC(=O)c1cccnc1N2C1CC1 [Nevirapine]
- IC50 of cell viability: > 46 µM

SMILES: NC(=O)c1cccnc1 [Niacinamide]
- IC50 of cell viability: > 46 µM

SMILES: O=C(CCNNC(=O)c1ccncc1)NCc1ccccc1 [Nialamide]
- IC50 of cell viability: > 46 µM

SMILES: CCCCC(CC)CCC(CC(C)C)OS(=O)(=O)[O-] (centres undefined) [NiaproofÆ 4]
- IC50 of cell viability: > 46 µM

SMILES: CC(CNC(=O)c1cccnc1)NC(=O)c1cccnc1 (centres undefined) [Nicaraven]
- IC50 of cell viability: > 46 µM

SMILES: O=C(OCC(COC(=O)c1cccnc1)(COC(=O)c1cccnc1)COC(=O)c1cccnc1)c1cccnc1 [Niceritrol]
- IC50 of cell viability: > 46 µM

SMILES: O=C(OCC1(COC(=O)c2cccnc2)CCCC(COC(=O)c2cccnc2)(COC(=O)c2cccnc2)C1O)c1cccnc1 [Nicomolol]
- IC50 of cell viability: > 46 µM

SMILES: O=C(NCCO[N+](=O)[O-])c1cccnc1 [Nicorandil]
- IC50 of cell viability: > 46 µM

SMILES: NC(=S)N/N=C/c1cccnc1 [Nicothiazone]
- IC50 of cell viability: > 46 µM

SMILES: Cn1c(NCCN(CCO)CCCc2ccc([N+](=O)[O-])cc2)cc(=O)n(C)c1=O [Nifekalant]
- IC50 of cell viability: > 46 µM

SMILES: CC(C)NCC(O)c1ccc([N+](=O)[O-])cc1 (centres undefined) [Nifenalol]
- IC50 of cell viability: > 46 µM

SMILES: CN1N(C2=CC=CC=C2)C(=O)C(=C1/C)/NC(=O)C3=CN=CC=C3 [Nifenazone]
- IC50 of cell viability: > 46 µM

SMILES: O=C(N/N=C\c1ccc([N+](=O)[O-])o1)c1ccc(O)cc1 [Nifuroxazide]
- IC50 of cell viability: > 46 µM

SMILES: O=C(N/N=C/c1ccc([N+](=O)[O-])o1)c1cc([N+](=O)[O-])cc([N+](=O)[O-])c1O [Nifursol]
- IC50 of cell viability: > 46 µM

SMILES: C[C@H]1C[S+](=O)([O-])CCN1/N=C\c1ccc([N+](=O)[O-])o1 [Nifurtimox]
- IC50 of cell viability: > 46 µM

SMILES: CCN(CC)C(=O)c1cccnc1 [Nikethamide]
- IC50 of cell viability: > 46 µM

SMILES: CC1(C)NC(=O)N(c2ccc([N+](=O)[O-])c(C(F)(F)F)c2)C1=O [Nilutamide]
- IC50 of cell viability: > 46 µM

SMILES: C[S+](=O)([O-])Nc1ccc([N+](=O)[O-])cc1Oc1ccccc1 [Nimesulide]
- IC50 of cell viability: > 46 µM

SMILES: O=C1NCCN1c1ncc([N+](=O)[O-])s1 [Niridazole]
- IC50 of cell viability: > 46 µM

SMILES: COC(=O)C1=C(C)NC(C)=C(C(=O)OCC(C)C)C1c1ccccc1[N+](=O)[O-] (centres undefined) [Nisoldipine]
- IC50 of cell viability: > 46 µM

SMILES: CC(=O)Nc1ncc([N+](=O)[O-])s1 [Nithiamide]
- IC50 of cell viability: > 46 µM

SMILES: Cc1nc([N+](=O)[O-])cn1-c1ccc([N+](=O)[O-])cc1 [Nitrefazole]
- IC50 of cell viability: > 46 µM

SMILES: O=[N+]([O-])c1ccccc1 [Nitrobenzene]
- IC50 of cell viability: > 46 µM

SMILES: O=C1CN(/N=C/c2ccc([N+](=O)[O-])o2)C(=O)N1 [Nitrofurantoin]
- IC50 of cell viability: > 46 µM

SMILES: NC(=O)N/N=C/c1ccc([N+](=O)[O-])o1 [Nitrofurazone]
- IC50 of cell viability: > 46 µM

SMILES: O=[N+]([O-])c1ccc(Oc2ccc(N=C=S)cc2)cc1 [Nitroscanate]
- IC50 of cell viability: > 46 µM

SMILES: CC(C)OC(=O)c1cc(C(=O)OC(C)C)cc([N+](=O)[O-])c1 [Nitrothal-isopropyl]
- IC50 of cell viability: > 46 µM

SMILES: CN/C(=C\[N+](=O)[O-])NCCSCc1csc(CN(C)C)n1 [Nizatidine]
- IC50 of cell viability: > 46 µM

SMILES: CCN(CC)Cc1nccn1-c1ccc([N+](=O)[O-])cc1C(=O)c1ccccc1Cl [Nizofenone]
- IC50 of cell viability: > 46 µM

SMILES: CCCCCCCCC(=O)NCc1ccc(O)c(OC)c1 [Nonanamide, N-[(4-hydroxy-3-methoxyphenyl)methyl]-]
- IC50 of cell viability: > 46 µM

SMILES: O=C(O)CCCCCCCC(=O)O [Nonanedioic acid]
- IC50 of cell viability: > 46 µM

SMILES: C[C@]12CC[C@H]3[C@@H](CCC4=CC(=O)CC[C@@H]43)[C@@H]1CC[C@@H]2O [Norandrostenolone]
- IC50 of cell viability: > 46 µM

SMILES: NC[C@H](O)c1ccc(O)c(O)c1 [Norepinephrine bitartrate]
- IC50 of cell viability: > 46 µM

SMILES: C[C@@]12CC[C@H]\3[C@@H](CC\C4=C3CCC(=O)C4)[C@H]1CC[C@]2(O)C#C [Norethynodrel]
- IC50 of cell viability: > 46 µM

SMILES: CCN1\C=C(\C(O)=O)C(=O)C2=C1C=C(N3CCNCC3)C(=C2)F [Norfloxacin]
- IC50 of cell viability: > 46 µM

SMILES: C#C[C@]1(OC(=O)CCCCCC)CC[C@H]2C3CCC4=CC(=O)CC[C@@H]4[C@H]3CC[C@@]21C (some centres undefined) [Noristerat]
- IC50 of cell viability: > 46 µM

SMILES: Oc1ccccc1/C=N/Cc1ccccc1 [Norletimol]
- IC50 of cell viability: > 46 µM

Reference: the supplement of paper PMC3974653
